Settings: Liquid, Vibrating tube method

CCCCCCC(=O)OC [methyl heptanoate]
mass density [kg/m3]
Settings	293.15 K	303.15 K	313.15 K	323.15 K	333.15 K	343.15 K	353.15 K	363.15 K
100 kPa	880.16	870.66	861.82	852.25	843.03	833.48	824.35	815.19
1000 kPa	880.29	871.46	862.16	853.12	843.81	834.64	825.27	816.36
3000 kPa	881.98	873.07	863.9	854.89	845.84	836.7	827.61	818.75
5000 kPa	883.19	874.66	865.62	856.64	847.68	838.79	829.66	821
10000 kPa	886.99	878.5	869.71	860.97	852.16	843.47	834.76	826.14
15000 kPa	890.49	882.18	873.55	865.07	856.43	848.02	839.63	831.57
20000 kPa	893.86	885.64	877.29	869.08	860.63	852.59	844.11	836.11
25000 kPa	897.18	889.08	880.89	872.69	864.64	856.55	848.48	840.56
30000 kPa	900.36	892.3	884.32	876.31	868.31	860.57	852.65	845.01
35000 kPa	903.34	895.46	887.66	879.74	871.91	864.43	856.65	849.23
40000 kPa	906.22	898.49	890.73	883.15	875.61	867.96	860.37	853.33
50000 kPa	912.14	904.43	896.98	889.53	882.2	875	867.57	860.82
60000 kPa	917.16	909.95	902.59	895.63	888.39	881.19	874.32	867.91

CCCCC(=O)OC [methyl pentanoate]
mass density [kg/m3]
Settings	293.15 K	303.15 K	313.15 K	323.15 K	333.15 K	343.15 K	353.15 K	363.15 K
100 kPa	890.18	879.57	869.49	858.83	848.52	837.8	827.35	816.63
1000 kPa	890.39	880.52	869.89	859.81	849.45	839.04	828.43	817.89
3000 kPa	892.23	882.29	871.87	861.81	851.71	841.41	831.13	820.7
5000 kPa	893.59	884.05	873.76	863.85	853.79	843.76	833.48	823.32
10000 kPa	897.77	888.3	878.33	868.67	858.86	849.05	839.27	829.23
15000 kPa	901.59	892.37	882.44	873.18	863.66	854.23	844.84	835.46
20000 kPa	905.28	896.14	886.62	877.67	868.26	859.25	849.86	840.59
25000 kPa	908.91	899.89	890.61	881.64	872.72	863.69	854.79	845.61
30000 kPa	912.4	903.55	894.38	885.65	876.79	868.17	859.45	850.57
35000 kPa	915.63	906.97	898.09	889.44	880.79	872.41	863.9	855.31
40000 kPa	918.78	910.27	901.45	893.13	884.78	876.28	868	859.8
50000 kPa	925.12	916.73	908.24	900.12	892.02	884.03	875.94	868.09
60000 kPa	930.63	922.74	914.32	906.77	898.8	890.84	883.37	875.9

CCCCCCCCC(=O)OC [methyl nonanoate]
mass density [kg/m3]
Settings	293.15 K	303.15 K	313.15 K	323.15 K	333.15 K	343.15 K	353.15 K	363.15 K
100 kPa	874.53	865.62	857.46	848.37	839.92	831.17	822.78	814.24
1000 kPa	874.57	866.39	857.68	849.17	840.72	832.28	823.57	815.28
3000 kPa	876.13	867.88	859.33	850.82	842.6	834.1	825.7	817.47
5000 kPa	877.24	869.35	860.86	852.43	844.26	835.98	827.54	819.49
10000 kPa	880.79	872.9	864.63	856.42	848.44	840.27	832.17	824.1
15000 kPa	884.05	876.32	868.21	860.21	852.27	844.44	836.71	829.08
20000 kPa	887.23	879.53	871.68	863.98	856.18	848.65	840.79	833.26
25000 kPa	890.33	882.74	875.06	867.27	859.9	852.29	844.86	837.27
30000 kPa	893.33	885.85	878.23	870.68	863.32	856.04	848.7	841.4
35000 kPa	896.14	888.79	881.36	873.86	866.68	859.58	852.44	845.31
40000 kPa	898.87	891.61	884.18	877.04	870.12	862.91	855.87	849.11
50000 kPa	904.41	897.21	890.09	883.08	876.13	869.47	862.53	855.98
60000 kPa	909.15	902.44	895.33	888.79	881.95	875.25	868.9	862.59
